# In patent EP0523769B1, “Gram-positive alkaliphilic microorganisms” (GENENCOR INTERNATIONAL, INC., priority 1991, dated 1993):
# Test system: Gram-positive alkaliphilic bacteria
# Assay: Antibiotic sensitivity, susceptibility test discs (characters 84-105)
# Format: cell-based
compound,measurement,setting,value
Tetracyclin,"Percentage Positive States, antibiotic sensitivity",CLUSTER 1,80%
same,"Percentage Positive States, antibiotic sensitivity",CLUSTER 2,60%
same,"Percentage Positive States, antibiotic sensitivity",CLUSTER 3,0%
same,"Percentage Positive States, antibiotic sensitivity",CLUSTER 4,100%
same,"Percentage Positive States, antibiotic sensitivity",CLUSTER 5,100%
same,"Percentage Positive States, antibiotic sensitivity",CLUSTER 6,25%
Gentamycin,"Percentage Positive States, antibiotic sensitivity",CLUSTER 1,60%
same,"Percentage Positive States, antibiotic sensitivity",CLUSTER 2,0%
same,"Percentage Positive States, antibiotic sensitivity",CLUSTER 3,50%
same,"Percentage Positive States, antibiotic sensitivity",CLUSTER 4,50%
same,"Percentage Positive States, antibiotic sensitivity",CLUSTER 5,50%
same,"Percentage Positive States, antibiotic sensitivity",CLUSTER 6,25%
NC[C@@H]1O[C@H](O[C@H]2[C@@H](O)[C@H](O[C@@H]3[C@@H](O)[C@H](N)C[C@H](N)[C@H]3O[C@H]3O[C@H](CN)[C@@H](O)[C@H](O)[C@H]3N)O[C@@H]2CO)[C@H](N)[C@@H](O)[C@@H]1O [Neomycin],"Percentage Positive States, antibiotic sensitivity",CLUSTER 1,0%
same,"Percentage Positive States, antibiotic sensitivity",CLUSTER 2,0%
same,"Percentage Positive States, antibiotic sensitivity",CLUSTER 3,0%
same,"Percentage Positive States, antibiotic sensitivity",CLUSTER 4,50%
same,"Percentage Positive States, antibiotic sensitivity",CLUSTER 5,17%
same,"Percentage Positive States, antibiotic sensitivity",CLUSTER 6,0%
Polymixin,"Percentage Positive States, antibiotic sensitivity",CLUSTER 1,40%
same,"Percentage Positive States, antibiotic sensitivity",CLUSTER 2,20%
same,"Percentage Positive States, antibiotic sensitivity",CLUSTER 3,0%
same,"Percentage Positive States, antibiotic sensitivity",CLUSTER 4,0%
same,"Percentage Positive States, antibiotic sensitivity",CLUSTER 5,0%
same,"Percentage Positive States, antibiotic sensitivity",CLUSTER 6,0%
